From patent EP0072987A1 (priority 1981, dated 1983) come the findings set out here.

This test concerns Tumorart PS 2684. Also on record: species or system Mäusen. The settings on record: in vivo.

Several values for one entry are separate records, joined by “and”; a condition that tells them apart may be missing. Equal values may be shown once.

In the case of `O=P1(N(CC2CO2)CC2CO2)OCCCN1CC1CO1` (centres unmarked) [Beispiel 1, 2H-1,3,2-Oxazaphosphorin, 2-(bis-glycidyl)aminotetrahydro-2-oxid-3-glycidyl-], the T/C-Wert is 158 and 132. For `CN(CC1CO1)P1(=O)OCCCN1CC(Cl)CO` (centres unmarked) [Beispiel 2, 2H-1,3,2-Oxazaphosphorin, 2-(glycidyl-methyl)amino-2-oxid-3-(3-hydroxy-2-chloro)-propyl- . tetrahvdro -] the value was 158 and 134.
